The subject of data set [1] is two-spotted spider mites. Briefly: Test Example 1: acaricidal activity, dipping of kidneybean leaves infested with two-spotted spider mites. The class given is in vivo. The note with it: for activity at 0.04 ppm: 0.04 p.p.m.; for activity at 0.08 ppm: 0.08 p.p.m.; for activity at 0.16 ppm: 0.16 p.p.m.; for activity at 0.31 ppm: 0.31 p.p.m.; for activity at 0.63 ppm: 0.63 p.p.m.; for activity at 1.25 ppm: 1.25 p.p.m.; for activity at 2.5 ppm: 2.5 p.p.m.; for activity at 5 ppm / activity at 10 ppm / activity at 20 ppm: read-out: acaricidal activity (%).

Data set [2] can be described thus: Alcohol solution, neutralization titration method (pKa). The class given is physicochemical. The text has this: |Alcohol solution, |neutralization pH ranging |titration method
Data set [3] in a line: Solubility in solvents. The class given is physicochemical. The following applies: "do." = same as A1.
The test system of data set [4] is citrus red mites. The data set is described as follows: Test Example 3: acaricidal activity, spraying of orange leaves infested with citrus red mites. The class given is in vivo. The following applies: after 24 hours. On the procedure: This chemical solution was sprayed to orange leaves infested with citrus red mites, and the acaricidal activity (%) after 24 hours was calculated.

For data set [5], the system named is European red mites. Briefly: Test Example 2: spraying of apple leaves infested with European red mites. The note with it: 5 days after spraying, non-treated 88/102. The class given is in vivo. How it is done:
An emulsifiable concentrate containing 20% of a of a crude B-41, which had been obtained by purifying two times according to alumina column chromatography the brown oily substance prepared in Example 1, was diluted to a given concentration to prepare a chemical solution. This chemical solution was sprayed to apple leaves infested with about 100 European red mites and, 5 days thereafter, the number of living mites was counted.

Data set [6] deals with rice stem borer. Briefly: Test Example 5: mortality of rice stem borer larvae in rice plants. It counts as in vivo, rice stem borer of 1st generation. The note with it: 120 h, read-out: mortality (%) of the larvae. How it is done:
Eggs of rice stem borer of 1st generation were inoculated to rice plants (variety "Kinmaze"), which had been planted in 200 cm^2 pots, and were hatched to allow the larvae invade the stems. Subsequently, a wettable powder containing 40% of a crude B-41, which had been obtained by purifying two times according to alumina column chromatography the brown oily substance prepared in Example 1, was diluted to a given concentration and then sprayed to the plants in a proportion of 100 cc. per pot. 5 Days thereafter, the stems were split to examine the alive and dead of the larvae, and the mortality (%) of the larvae was calculated.

Like-named read-outs stand apart in the source and are kept apart here.

Turning to `CC1=CCC2CC(CC3(CCC(C)C(C)O3)O2)OC(=O)C2C=C(COC(=O)c3ccc[nH]3)C(O)C3OCC(=CC=CC(C)C1)C23O` (stereo not drawn) [C1], in data set [1] (after 24 hours), the activity at 0.04 ppm was found to be 51.8%, the activity at 0.08 ppm came to 100%, the activity at 0.16 ppm was found to be 100% and the activity at 0.31 ppm was determined as 100%. For the same compound, in data set [1] (after 24 hours), the activity at 0.63 ppm is 100%, the activity at 1.25 ppm was found to be 100% and the activity at 2.5 ppm turned out to be 100%. In addition, the activity at 5 ppm in data set [1] (5 p.p.m., after 24 hours) was 100%. Also, the activity at 10 ppm in data set [1] (10 p.p.m., after 24 hours) is 100%. Further, the activity at 20 ppm in data set [1] (20 p.p.m., after 24 hours) stood at 100%. The “pKa (No pKa at pH ranging from 2 to 12)” value in data set [2] is reported as “No pKa”.
As to `COC1CC2(O)C(CO)=CC=CC(C)CC(C)=CCC3CC(CC4(CCC(C)C(C)O4)O3)OC(=O)C2C=C1C` (stereo not drawn) [A1], in data set [3] (n-hexane, benzene, acetone, ethanol and chloroform), the “Solubility in organic solvents ("easily soluble in n-hexane, benzene, acetone, ethanol and chloroform")” value is reported as “easily”. For the same compound, in data set [3] (water), the “Solubility in water ("Difficultly soluble in water")” value is “Difficultly”. Also, in data set [1] (after 24 hours), the activity at 1.25 ppm amounted to 0% and the activity at 2.5 ppm is 19.9%. The activity at 5 ppm in data set [1] (5 p.p.m., after 24 hours) amounted to 100%. Besides, in data set [1] (10 p.p.m., after 24 hours), the activity at 10 ppm was 100%. The activity at 20 ppm in data set [1] (20 p.p.m., after 24 hours) came to 100%. The “pKa (No pKa at pH ranging from 2 to 12)” value in data set [2] is recorded as “No pKa”.
Turning to `CCC1OC2(CCC1C)CC1CC(CC=C(C)CC(C)C=CC=C3COC4C(O)C(COC(=O)c5ccc[nH]5)=CC(C(=O)O1)C34O)O2` (stereo not drawn) [C2], in data set [1] (after 24 hours), the activity at 0.04 ppm was found to be 97.3%, the activity at 0.08 ppm was 100%, the activity at 0.16 ppm was 100% and the activity at 0.31 ppm came out at 100%. Further, in data set [1] (after 24 hours), the activity at 0.63 ppm is 100%, the activity at 1.25 ppm was determined as 100% and the activity at 2.5 ppm turned out to be 100%. Besides, in data set [1] (5 p.p.m., after 24 hours), the activity at 5 ppm amounted to 100%. In addition, the activity at 10 ppm in data set [1] (10 p.p.m., after 24 hours) is 100%. For the same compound, the activity at 20 ppm in data set [1] (20 p.p.m., after 24 hours) amounted to 100%. In data set [2], the “pKa (No pKa at pH ranging from 2 to 12)” value is recorded as “do”.
In data set [1] (after 24 hours), `COC1C(C)=CC2C(=O)OC3CC(CC=C(C)CC(C)C=CC=C4COC1C42O)OC1(CCC(C)C(C)O1)C3` (stereo not drawn) [B2] showed an activity at 0.08 ppm of 0%, an activity at 0.16 ppm of 16.6%, an activity at 0.31 ppm of 80.5% and an activity at 0.63 ppm of 100%. Further, in data set [1] (after 24 hours), the activity at 1.25 ppm is 100% and the activity at 2.5 ppm was 100%. Also, the activity at 5 ppm in data set [1] (5 p.p.m., after 24 hours) stood at 100%. In addition, the activity at 10 ppm in data set [1] (10 p.p.m., after 24 hours) amounted to 100%. In addition, the activity at 20 ppm in data set [1] (20 p.p.m., after 24 hours) turned out to be 100%. Besides, in data set [2] (alcohol solution, neutralization titration), the “pH at which crystallization took place in the titration” value was approximately 8.7.
In data set [1] (after 24 hours), `CC1=CCC2CC(CC3(CCC(C)C(C)O3)O2)OC(=O)C2C=C(C)C(O)C3OCC(=CC=CC(C)C1)C23O` (stereo not drawn) [A3] showed an activity at 0.04 ppm of 15.2%, an activity at 0.08 ppm of 100%, an activity at 0.16 ppm of 98.2% and an activity at 0.31 ppm of 100%. In data set [1] (after 24 hours), this compound displayed an activity at 0.63 ppm of 100%, an activity at 1.25 ppm of 100% and an activity at 2.5 ppm of 100%. Moreover, the activity at 5 ppm in data set [1] (5 p.p.m., after 24 hours) came to 100%. Moreover, in data set [1] (10 p.p.m., after 24 hours), the activity at 10 ppm is 100%. In data set [1] (20 p.p.m., after 24 hours), the activity at 20 ppm worked out at 100%. For the same compound, the “pKa (No pKa at pH ranging from 2 to 12)” value in data set [2] was “do”.
As for `OC(c1ccc(Cl)cc1)(c1ccc(Cl)cc1)C(Cl)(Cl)Cl` [Kelthane, 1,1-Bis-(p-chlorophenyl)-2,2,2-trichloroethanol], the activity at 5 ppm in data set [1] (24 h) was 0%. The activity at 10 ppm in data set [1] (24 h) is 56.4%. Besides, the activity at 20 ppm in data set [1] (24 h) came to 100%; in data set [4] (20 p.p.m.) it was 90.9%. In data set [4] (7 p.p.m.), this compound gave an activity at 7 ppm of 30.8%. The “number of mites living at counting / before spraying (given as fraction)” value in data set [5] (50 p.m.m. [sic]) was 56/128; in data set [5] (100 p.p.m.) it was 8/103; in data set [5] (200 p.p.m.) it was 0/97.
In data set [1] (after 24 hours), `CCC1OC2(CCC1C)CC1CC(CC=C(C)CC(C)C=CC=C3COC4C(O)C(C)=CC(C(=O)O1)C34O)O2` (stereo not drawn) [A4] gave an activity at 0.04 ppm of 21.3%, an activity at 0.08 ppm of 100%, an activity at 0.16 ppm of 100% and an activity at 0.31 ppm of 100%. In addition, in data set [1] (after 24 hours), the activity at 0.63 ppm worked out at 100%, the activity at 1.25 ppm was determined as 100% and the activity at 2.5 ppm was 100%. Also, the activity at 5 ppm in data set [1] (5 p.p.m., after 24 hours) was found to be 100%. For the same compound, the activity at 10 ppm in data set [1] (10 p.p.m., after 24 hours) came out at 100%. Further, the activity at 20 ppm in data set [1] (20 p.p.m., after 24 hours) is 100%.
In data set [1] (after 24 hours), `CCC1OC2(CCC1C)CC1CC(CC=C(C)CC(C)C=CC=C3COC4C(OC)C(C)=CC(C(=O)O1)C34O)O2` (stereo not drawn) [B3] returned an activity at 0.04 ppm of 0%, an activity at 0.08 ppm of 18.3%, an activity at 0.16 ppm of 74.1% and an activity at 0.31 ppm of 100%. In data set [1] (after 24 hours), the activity at 0.63 ppm was found to be 100%, the activity at 1.25 ppm was 100% and the activity at 2.5 ppm came to 100%. Besides, the activity at 5 ppm in data set [1] (5 p.p.m., after 24 hours) is 100%. The activity at 10 ppm in data set [1] (10 p.p.m., after 24 hours) worked out at 100%. Besides, the activity at 20 ppm in data set [1] (20 p.p.m., after 24 hours) turned out to be 100%.
For orientation: mortality means the share of the test organisms that died. Consider `COP(=O)(OC)OC=C(Cl)Cl` [Reference **], for which, in data set [6], the mortality at 50 ppm turned out to be 25.5% and the mortality at 100 ppm is 82.1%.
